Experimental data published in ChEMBL document CHEMBL1275543, “Proposed MIC and disk diffusion microbiological cutoffs and spectrum of activity of retapamulin, a novel topical antimicrobial agent” (2008).
Converted amounts (≈) assume the structure as drawn.

Experiments:
Type in all cases: functional
Staphylococcus [1] = assay: Antibacterial activity against methicillin resistant coagulase-negative Staphylococcus
Staphylococcus [2] = assay: Antibacterial activity against methicillin sensitive coagulase-negative Staphylococcus
Staphylococcus aureus [3] = assay: Antibacterial activity against methicillin resistant Staphylococcus aureus
Staphylococcus aureus [4] = assay: Antibacterial activity against methicillin sensitive Staphylococcus aureus
Staphylococcus aureus [5] = assay: Antibacterial activity against vancomycin intermediate Staphylococcus aureus
[6] = Antibacterial activity against beta-hemolytic Streptococcus group C; conditions: Streptococcus sp. 'group C'
[7] = Antibacterial activity against beta-hemolytic Streptococcus group G; conditions: Streptococcus sp. 'group G'
Streptococcus agalactiae = assay: Antibacterial activity against Streptococcus agalactiae
Streptococcus pyogenes [8] = assay: Antibacterial activity against Streptococcus pyogenes
Streptococcus viridans = assay: Antibacterial activity against Streptococcus viridans
Staphylococcus aureus [9] = assay: Antibacterial activity against Staphylococcus aureus
Streptococcus pyogenes [10] = assay: Ratio of MBC90 to MIC90 for Streptococcus pyogenes
Staphylococcus [11] = assay: Ratio of MBC90 to MIC90 for coagulase-negative Staphylococcus
Staphylococcus aureus [12] = assay: Ratio of MBC90 to MIC90 for Staphylococcus aureus
[13] = Antibacterial activity against gram-negative Bacilli species
Enterococcus = assay: Antibacterial activity against Enterococcus species
Staphylococcus [14] = assay: Antibacterial activity against coagulase-negative Staphylococcus

Row | SMILES | MIC50 (Staphylococcus [1]) [µg/mL] | MIC90 (Staphylococcus [1]) [µg/mL] | MIC50 (Staphylococcus [2]) [µg/mL] | MIC90 (Staphylococcus [2]) [µg/mL] | MIC50 (Staphylococcus aureus [3]) [µg/mL] | MIC90 (Staphylococcus aureus [3]) [µg/mL] | MIC50 (Staphylococcus aureus [4]) [µg/mL] | MIC90 (Staphylococcus aureus [4]) [µg/mL] | MIC50 (Staphylococcus aureus [5]) [µg/mL] | MIC90 (Staphylococcus aureus [5]) [µg/mL] | MIC50 [6] [µg/mL] | MIC90 [6] [µg/mL] | MIC50 [7] [µg/mL] | MIC90 [7] [µg/mL] | MIC50 (Streptococcus agalactiae) [µg/mL] | MIC90 (Streptococcus agalactiae) [µg/mL] | MIC50 (Streptococcus pyogenes [8]; Streptococcus pyogenes) [µg/mL] | MIC90 (Streptococcus pyogenes [8]; Streptococcus pyogenes) [µg/mL] | MIC50 (Streptococcus viridans) [µg/mL] | MIC90 (Streptococcus viridans) [µg/mL] | further results
1 | C=C[C@]1(C)C[C@@H](OC(=O)CS[C@@H]2C[C@H]3CC[C@@H](C2)N3C)[C@]2(C)[C@H](C)CC[C@]3(CCC(=O)[C@H]32)[C@@H](C)[C@@H]1O [RETAPAMULIN] | 0.06 (≈ 0.116 µM) | 0.12 (≈ 0.232 µM) | 0.12 (≈ 0.232 µM) | 4 (≈ 7.73 µM) | 0.12 (≈ 0.232 µM) | 0.12 (≈ 0.232 µM) | 0.12 (≈ 0.232 µM) | 0.12 (≈ 0.232 µM) | 0.06 (≈ 0.116 µM) | 0.12 (≈ 0.232 µM) | 0.016 (≈ 0.0309 µM) | 0.03 (≈ 0.0579 µM) | 0.03 (≈ 0.0579 µM) | 0.06 (≈ 0.116 µM) | 0.03 (≈ 0.0579 µM) | 0.03 (≈ 0.0579 µM) | 0.016 (≈ 0.0309 µM) | 0.03 (≈ 0.0579 µM) | 0.06 (≈ 0.116 µM) | 0.25 (≈ 0.483 µM) | MIC [6]: 0.016 µg/mL (≈ 0.0309 µM); Activity (Streptococcus pyogenes [8]): 16 µg/mL; MIC (Streptococcus pyogenes [8]; Streptococcus pyogenes): 0.016 µg/mL (≈ 0.0309 µM); Activity (Staphylococcus aureus [9]): 128 µg/mL; Ratio (Streptococcus pyogenes [10]): 256; Ratio (Staphylococcus [11]): 512; Ratio (Staphylococcus aureus [12]): 1024; MIC50 [13]: 256 µg/mL (≈ 494 µM); MIC90 [13]: > 512 µg/mL; MIC50 (Enterococcus): 64 µg/mL (≈ 124 µM); MIC90 (Enterococcus): 128 µg/mL (≈ 247 µM); MBC (Staphylococcus [14]): 64 µg/mL (≈ 124 µM)
2 | C/C(=C\C(=O)OCCCCCCCCC(=O)O)C[C@@H]1OC[C@H](C[C@@H]2O[C@H]2[C@@H](C)[C@H](C)O)[C@@H](O)[C@H]1O [MUPIROCIN] | 0.25 (≈ 0.499 µM) | > 32 | 0.25 (≈ 0.499 µM) | 32 (≈ 63.9 µM) | 0.25 (≈ 0.499 µM) | 2 (≈ 3.99 µM) | 0.25 (≈ 0.499 µM) | 0.5 (≈ 0.999 µM) | 0.25 (≈ 0.499 µM) | 1 (≈ 2 µM) | 0.5 (≈ 0.999 µM) | 1 (≈ 2 µM) | 0.25 (≈ 0.499 µM) | 0.5 (≈ 0.999 µM) | 1 (≈ 2 µM) | 2 (≈ 3.99 µM) | 0.12 (≈ 0.24 µM) | 0.25 (≈ 0.499 µM) | 1 (≈ 2 µM) | 2 (≈ 3.99 µM) | MIC50 [13]: > 32 µg/mL; MIC90 [13]: > 32 µg/mL; MIC50 (Enterococcus): 32 µg/mL (≈ 63.9 µM); MIC90 (Enterococcus): > 32 µg/mL
